Assay results as given in patent publication US6982279B2, “Arylated furan- and thiophenecarboxamides, processes for their preparation, their use as medicaments, and pharmaceutical preparations comprising them” (Aventis Pharm Deutschland GmbH, priority 2000, dated 2006).

molecular target: T1, Kv1.5 channels from humans (Homo sapiens, UniProt P22460); experiment: Kv1.5 currents in Xenopus oocytes, 2-microelectrode voltage clamp; format: cell-based; conditions: human Kv1.5 expressed in Xenopus laevis oocytes; voltage jumps to 0 mV and 40 mV lasting 500 ms; room temperature; Hill equation
T1 construct: expressed in transfected cells; host or cells: Xenopus laevis oocytes injected with in vitro synthesized RNA
Method: Kv1.5 channels from humans were expressed in Xenopus oocytes. To this end, oocytes from Xenopus laevis were first isolated and defolliculated. RNA coding for Kv1.5 synthesized in vitro was then injected into these oocytes. After a Kv1.5 protein expression for 1-7 days, Kv1.5 currents were measured on the oocytes using the 2-microelectrode voltage clamp technique. The Kv1.5 channels were in this case as a rule activated using voltage jumps to 0 mV and 40 mV lasting 500 ms. The bath was rinsed using a solution of the following composition: NaCl 96 mM, KCl 2 mM, CaCl2 1.8 mM, MgCl2 1 mM, HEPES 5 mM (titrated with NaOH to pH 7.4). These experiments were carried out at room temperature. The following were employed for data acquisition and analysis: Gene clamp amplifier (Axon Instruments, Foster City, USA) and MacLab D/A converter and software (ADInstruments, Castle Hill, Australia). The substances according to the invention were tested by adding them to the bath solution in different concentrations. The effects of the substances were calculated as the percentage inhibition of the Kv1.5 control current which was obtained when no substance was added to the solution. The data were then extrapolated using the Hill equation in order to determine the inhibition concentrations IC50 for the respective substances.

T1 sequence (P22460 whole entry): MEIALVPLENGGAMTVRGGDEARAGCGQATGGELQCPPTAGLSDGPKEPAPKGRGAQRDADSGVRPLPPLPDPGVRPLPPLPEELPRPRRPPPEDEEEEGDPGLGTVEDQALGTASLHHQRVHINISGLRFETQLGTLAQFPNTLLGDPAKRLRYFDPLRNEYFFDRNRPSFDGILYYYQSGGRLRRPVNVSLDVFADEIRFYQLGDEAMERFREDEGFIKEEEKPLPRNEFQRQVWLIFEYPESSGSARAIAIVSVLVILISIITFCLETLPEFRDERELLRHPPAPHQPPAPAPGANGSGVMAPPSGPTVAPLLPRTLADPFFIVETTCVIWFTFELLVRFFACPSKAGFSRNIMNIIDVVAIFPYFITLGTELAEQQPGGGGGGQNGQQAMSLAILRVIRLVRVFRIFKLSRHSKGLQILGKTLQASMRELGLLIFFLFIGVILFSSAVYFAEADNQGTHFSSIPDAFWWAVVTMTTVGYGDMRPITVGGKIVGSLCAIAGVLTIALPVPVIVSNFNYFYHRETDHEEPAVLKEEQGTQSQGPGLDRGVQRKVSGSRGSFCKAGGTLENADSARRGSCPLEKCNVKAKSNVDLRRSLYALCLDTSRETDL

Row | IC50 [µM] | SMILES
1 | < 100 | O=C(NCc1ccccc1-c1ccc(C(=O)NCc2ccc(F)cc2F)o1)OCc1ccccc1 [Example 19]
2 | 2 | O=C(NCc1ccccc1-c1ccsc1C(=O)NCc1ccc(F)cc1F)OCc1ccccc1 [Example 12]
3 | < 100 | COc1ccc(CC(=O)NCc2ccccc2-c2ccc(C(=O)NCCC(C)C)o2)cc1 [Example 28]
4 | 1.7 | COc1ccc(CC(=O)NCc2ccccc2-c2ccsc2C(=O)NCCC(C)C)cc1 [Example 22]
5 | 5 | CC(C)(C)OC(=O)NCc1ccccc1-c1ccsc1C(=O)NCc1ccc(F)cc1F [Example 2]
6 | 1.2 | COc1ccc(CC(=O)NCc2ccccc2-c2ccsc2C(=O)NCc2ccc(F)cc2F)cc1 [Example 23]
7 | 5.6 | CC(C)CCNC(=O)c1occc1-c1ccccc1CNC(=O)OCc1ccccc1 [Example 13]
8 | 9 | CC(C)(C)OC(=O)NCc1ccccc1-c1ccoc1C(=O)NCc1ccc(F)cc1F [Example 3]
9 | 1.2 | CC(C)CCNC(=O)c1ccsc1-c1ccccc1CNC(=O)OCc1ccccc1 [Example 15]
10 | 4.2 | COc1ccc(CC(=O)NCc2ccccc2-c2ccc(C(=O)NCc3ccc(F)cc3F)o2)cc1 [Example 29]
11 | < 100 | CC(C)CCNC(=O)c1ccc(-c2ccccc2CNC(=O)OC(C)(C)C)o1 [Example 10]
12 | 3.9 | COc1ccc(CC(=O)NCc2ccccc2-c2ccoc2C(=O)NCc2ccc(F)cc2F)cc1 [Example 21]
13 | < 100 | CC(C)CCNC(=O)c1ccsc1-c1ccccc1CNC(=O)OC(C)(C)C [Example 6]
14 | 1.9 | O=C(NCc1ccccc1-c1sccc1C(=O)NCc1ccc(F)cc1F)OCc1ccccc1 [Example 16]
15 | 5.2 | CC(C)CCNC(=O)c1ccoc1-c1ccccc1CNC(=O)OC(C)(C)C [Example 8]
16 | < 100 | O=C(NCc1ccccc1-c1ccoc1C(=O)NCc1ccc(F)cc1F)OCc1ccccc1 [Example 14]
17 | 2.2 | COc1ccc(CC(=O)NCc2ccccc2-c2sccc2C(=O)NCCC(C)C)cc1 [Example 24]
18 | 10 | CC(C)CCNC(=O)c1occc1-c1ccccc1CNC(=O)OC(C)(C)C [Example 4]
19 | 1.5 | COc1ccc(CC(=O)NCc2ccccc2-c2sccc2C(=O)NCc2ccc(F)cc2F)cc1 [Example 25]
20 | 3 | CC(C)CCNC(=O)c1sccc1-c1ccccc1CNC(=O)OCc1ccccc1 [Example 11, Benzyl {2-[2-(3-methylbutylcarbamoyl)thiophen-3-yl]-benzyl}carbamate]
21 | < 100 | CC(C)(C)OC(=O)NCc1ccccc1-c1ccc(C(=O)NCc2ccc(F)cc2F)o1 [Example 9]
22 | 5.2 | O=C(NCc1ccccc1-c1occc1C(=O)NCc1ccc(F)cc1F)OCc1ccccc1 [Example 18]
23 | 10 | CC(C)(C)OC(=O)NCc1ccccc1-c1occc1C(=O)NCc1ccc(F)cc1F [Example 7]
24 | < 100 | COc1ccc(CC(=O)NCc2ccccc2-c2ccoc2C(=O)NCCC(C)C)cc1 [Example 20]
25 | 6.6 | COc1ccc(CC(=O)NCc2ccccc2-c2occc2C(=O)NCc2ccc(F)cc2F)cc1 [Example 27]
26 | 3.9 | COc1ccc(CC(=O)NCc2ccccc2-c2occc2C(=O)NCCC(C)C)cc1 [Example 26]
27 | 3.1 | CC(C)(C)OC(=O)NCc1ccccc1-c1sccc1C(=O)NCc1ccc(F)cc1F [Example 5]
28 | 2.2 | CC(C)CCNC(=O)c1ccoc1-c1ccccc1CNC(=O)OCc1ccccc1 [Example 17]
29 | 4 | CC(C)CCNC(=O)c1sccc1-c1ccccc1CNC(=O)OC(C)(C)C [Example 1, tert-Butyl {2-[2-(3-methylbutylcarbamoyl)thiophen-3-yl]benzyl}carbamate]
